The text below walks through data of patent US20090291857A1, “METHODS TO IDENTIFY INHIBITORS OF THE UNFOLDED PROTEIN RESPONSE” (THE BOARD OF TRUSTEES OF THE LELAND STANFORD JUNIOR …, priority 2006, published 2009).

pIC50: −log10 of the molar value. Read-outs that look alike come from different tables or passages of the source.

Series [1] concerns IRE1α/XBP-1 pathway (XBP1-luciferase reporter). Description: High throughput XBP-luciferase reporter screen, tunicamycin/thapsigargin induced (HTS and IRE IC50). It counts as cell-based, human. The note with it: Homo sapiens; for inhibition at 20 µM: Conc 20 uM. The procedure:
Specifically, HT1080 fibrosarcoma cells stably transfected with the unspliced XBP-1-luciferase reporter construct (3000/well) were plated onto a solid white 384 well microplate with a multidrop dispenser (40 μL per well). The plates were then placed into an automated incubator. After 24 hours of growth, a mixture of tunicamycin (1 μg/ml) and thapsigargin (100 nM) inducers were added, and candidate compounds were then added to the plates. After 24 hours, luciferase reagent (10 μl) was added to each well and the plates were read in a Molecular Devices Analyst GT (0.2 second read per well).
As described above in Example 2, HT1080 fibrosarcoma cells stably expressing the XBP-luciferase reporter were plated in a 384 well microplate (4000 cells/well). After 24 hours, cells were treated with a mixture of tunicamycin (4 μg/ml) and thapsigargin (0.4 μM), followed by the addition of one compound per well (10 μM). We screened a total of 66,000 diverse molecules obtained from Specs, Chembridge and ChemRX. Twenty-four hours post-induction, BriteGlo luciferase substrate (10 μl) was added to each well and the signal intensity determined in a plate reader (0.2 s read per well). […] We retested 431 compounds from the initial screen, and selected 58 compounds for additional analysis, including calculation of IC50 values and inhibition of a CMV-luciferase reporter.
A. XBP-luciferase reporter construct. Firefly luciferase was inserted downstream of the IRE1α splice site in human XBP-1 to enable the conditional translation of luciferase under ER stress in an IRE1α-dependent manner. B. Selective inhibition of the XBP-luciferase reporter by irestatin 9389. HT1080 human fibrosarcoma cells stably expressing the XBP-luciferase reporter or CMV-luciferase were cultured in the presence of Tm (4 μg/ml) and Tg (0.4 μM) and irestatin 9389 at the indicated concentrations. After 24 hours, luciferase activity was analyzed in an automated plate reader. For each cell line, values are expressed as the percent inhibition of the median for Tm/Tg-treated wells, corrected for background. C. Structure of irestatin 9389. D. XBP-luciferase reporter assay. HT1080 cells stably expressing the XBP-luciferase reporter were exposed to Tm (4 μg/ml) for 24 hours or hypoxia (0.1% oxygen) for 24 or 48 hours, in the presence of DMSO or irestatin 9389 (1 μM) as indicated. Values are expressed as the fold increases over uninduced levels. E. 5X-UPRE reporter assay. HT1080 cells were co-transfected with 5X-UPRE luciferase and SV40-beta-gal reporter plasmids, followed by exposure to Tm or hypoxia as in D. For each condition, luciferase activity is normalized to beta-galactosidase expression levels as an internal control for transfection efficiency. F. Western immunoblot analysis of XBP-1s. HT1080 cells were left untreated (lane 2) or exposed to Tm (4 μg/ml) for 20 hours in the presence of DMSO vehicle (lane 1) or the indicated irestatins (2 μM; lanes 3-6). Cell lysates were resolved by SDS-PAGE and immunoblotting using antisera specific for XBP-1s (top panel) or actin and GAPDH (bottom panel) as loading controls. […] HT1080 cells were treated with DMSO or exposed to irestatin 9389 (2 μM; lane 3) in normoxia (N) or under hypoxia for 24 hours (H 24; lanes 2,3). Cells were harvested, lysed, and analyzed by immunoblotting with antisera specific for HIF-1α (top), XBP-1s (middle) or actin (bottom). H. Northern blot analysis of XBP-1s transcription targets. Cells were exposed to Tm (4 μg/ml) or hypoxia for 24 hours (H 24) in the absence or presence of irestatin 9389 (2 μM). Total RNA was analyzed by Northern blotting using radiolabeled probes specific for P58^IPK or DER-1. Total rRNA is shown as loading control.
As described above, a HT1080 fibrosarcoma cell line stably expressing a fusion of unprocessed XBP-1 inserted upstream of firefly luciferase has been developed to identify small molecule inhibitors of the IRE1α/XBP-1 signaling module. […]
(A reporter such as luciferase makes a cellular process visible.)

In a further series the test system is XBP-1 splicing. Briefly: Bioluminescence imaging of XBP-1 splicing in HT1080 XBP-1s-luciferase tumors in nude mice. The class given is in vivo. The settings on record: IP, 50 mg/kg. The method, then:
Several nude mice were implanted with HT1080 cells stably expressing a XBP-1s-luciferase construct and XBP-1 activation was examined using bioluminescence imaging. Imaging was performed using the In Vivo Imaging System (IVIS, Xenogen Corporation, Alameda, Calif.) in the Stanford Center for Innovation in In Vivo Imaging (SCI3). This device consists of a cooled CCD camera mounted on a light-tight specimen chamber. In these experiments, two different potential irestatins (3281 & 5500) were injected IP into nude mice implanted with HT1080 stably expressing XBP1s-luciferase (described in FIG. 2A).
As shown in FIGS. 9A-D, XBP-1 splicing activity was undetectable 8 hrs after irestatin 3281 injection and became detectable within 16 hrs later.

Setting [2] is: 24 h, inhibition of XBP1-luciferase reporter, read-out: Activity Class.
The mark [3] stands for this setting: HTS, Conc 10 uM, read-out: % Inh.

With `Cc1cccc(NC(=O)c2sc3nc(C)cc(C(F)(F)F)c3c2N)n1` [Compound 2750], the inhibition at 10 µM was 10 to 30% in series [1] (setting [2]) and 11.7% in series [1] (setting [3]).
For `COc1ccccc1NC(=O)CSc1nc2c(c(C(F)(F)F)c1C#N)CCC2` [Compound 4950], the inhibition at 10 µM in series [1] (setting [2]) was below 10%; in series [1] (setting [3]) it was -6.2%.
The matching figures for `Nc1c(C(=O)Nc2ccccn2)sc2nc(-c3cccs3)cc(C(F)(F)F)c12` [Compound 1567]: below 10% and -41.2%.
In the case of `COCc1cc(C)nc(SCC(=O)Nc2nc(-c3ccc(C)cc3)cs2)c1C#N` [Compound 9668], the inhibition at 10 µM in series [1] (setting [2]) was 10 to 30%; in series [1] (setting [3]), 19%.
For `Cc1cc(C(F)(F)F)c(C#N)c(SCC(=O)Nc2nccs2)n1` [Compound 8233], the figures for the inhibition at 10 µM in series [1] (setting [2]) and in series [1] (setting [3]) were below 10% and -59.6%, respectively.
`Cc1csc(NC(=O)c2sc3nc4c(c(C(F)(F)F)c3c2N)CCC4)n1` [Compound 5500]: the inhibition at 10 µM in series [1] (setting [2]) was in the range of 75 to 100%. The inhibition at 20 µM in series [1] (IRE IC50 assay) is 100%. Moreover, in the series with XBP-1 splicing, the “effect on XBP-1 splicing at the time points assayed” value is “did not have any affect on XBP-1 splicing” and the toxicity result is listed as “no apparent toxicity”.
Regarding `COCc1cc(C)nc(SCC(=O)Nc2nc(-c3ccccc3)c(C)s2)c1C#N` [Compound 9766], the inhibition at 10 µM in series [1] (setting [2]) was 10 to 30%; in series [1] (setting [3]), 26.7%.
Consider `COc1ccc(NC(=O)CSc2nc3c(c(C(F)(F)F)c2C#N)CCC3)c(OC)c1` [Compound 9388], for which the inhibition at 10 µM is below 10% in series [1] (setting [2]) and -40.8% in series [1] (setting [3]).
The matching figures for `N#Cc1c(C(F)(F)F)cc(-c2ccncc2)nc1SCC(=O)Nc1nccs1` [Compound 0069]: below 10% and -5.4%.
In the case of `COCc1cc(C)nc(SCC(=O)Nc2nc(-c3ccc(Br)cc3)cs2)c1C#N` [Compound 0040], the inhibition at 10 µM in series [1] (setting [2]) is below 10%; in series [1] (setting [3]), -4.6%.
As to `N#Cc1c(C(F)(F)F)cc(-c2cccs2)nc1SCC(=O)Nc1ccc(C(N)=O)cc1` [Compound 9165], the inhibition at 10 µM in series [1] (setting [2]) was below 10%; in series [1] (setting [3]) it was -6.5%.
As to `Cc1csc(NC(=O)c2sc3nc4c(c(C(F)(F)F)c3c2N)CCCC4)n1` [Compound 4335], the inhibition at 10 µM in series [1] (setting [2]) was 30 to 75%. Further, the inhibition at 12 µM in series [1] (IRE IC50 assay, Conc 12 uM) worked out at 70.4%. For the same molecule, in series [1] (IRE IC50 assay), the inhibition at 20 µM amounted to 67.4%.
What is called pIC50 is the IC50 on a negative log10 scale, so that one unit is a factor of ten. `N#Cc1cc2c(nc1SCC(=O)Nc1nccs1)CCC2` [Compound 3371]: the inhibition at 20 µM in series [1] (IRE IC50 assay) turned out to be 72.6%. Further, the pIC50 in series [1] (IRE IC50 assay, each value a separate calculation, estimate, not accurate below 10 nM, read-out: IC50) was 4.86.
As for `CCN(CC)C(=O)CSc1nc2c(c(C(F)(F)F)c1C#N)CCC2` [Compound 8920], the inhibition at 10 µM in series [1] (setting [2]) was 10 to 30%; in series [1] (setting [3]), 25.7%.
The like results for `N#Cc1c(C(F)(F)F)cc(-c2cccs2)nc1SCC(=O)Nc1nccs1` [Compound 6451] were, in that order, below 10% and -55.6%.
For `COc1ccc(CNC(=O)c2sc3nc4c(c(C(F)(F)F)c3c2N)CCC4)cc1` [Compound 1740], the inhibition at 10 µM in series [1] (setting [2]) lay in the range of 10 to 30%.
As to `Cc1cc(C(F)(F)F)c2c(N)c(C(=O)Nc3cccc(C(F)(F)F)c3)sc2n1` [Compound 3290], the inhibition at 10 µM is below 10% in series [1] (setting [2]) and -30.3% in series [1] (setting [3]).
As to `COCc1cc(C)nc(SCC(=O)Nc2nc(-c3ccccc3)cs2)c1C#N` [Compound 9787], the inhibition at 10 µM was below 10% in series [1] (setting [2]) and -122% in series [1] (setting [3]).
In the case of `N#Cc1cc2c(nc1SCC(=O)Nc1nccs1)CCCCC2` [Compound 3398], the values for the inhibition at 10 µM in series [1] (setting [2]) and in series [1] (setting [3]) were below 10% and -56.2%, respectively.
As to `N#Cc1c(C(F)(F)F)cc(-c2cccs2)nc1SCC(=O)Nc1ccccn1` [Compound 4645], the inhibition at 10 µM in series [1] (setting [2]) is below 10%; in series [1] (setting [3]), -8.3%.
Take `N#Cc1cccc(NC(=O)c2sc3nc4c(c(C(F)(F)F)c3c2N)CCC4)c1` [Compound 8878]: in series [1] (setting [2]), the inhibition at 10 µM is 30 to 75%.
With `N#Cc1sc2nc(-c3cccs3)cc(C(F)(F)F)c2c1N` [Compound 6068], the inhibition at 10 µM in series [1] (setting [2]) is below 10%. In addition, in series [1] (HTS, Conc 12.3 uM), the inhibition at 12.3 µM was found to be 5.8%.
Consider `CC(=O)C1=C(C)NC(SCC(=O)Nc2nc3ccccc3s2)=C(C#N)C1c1cccnc1` (stereo not shown) [Compound 2853], for which the results for the inhibition at 10 µM in series [1] (setting [2]) and in series [1] (setting [3]) were 10 to 30% and 26.5%, respectively.
As for `CC(=O)N1CCc2nc3sc(C(=O)Nc4cccc(C#N)c4)c(N)c3c(C(F)(F)F)c2C1` [Compound 1491], the inhibition at 10 µM in series [1] (setting [2]) lay in the range of 10 to 30%.
Take `COc1ccc(CNC(=O)c2sc3nc4c(c(C(F)(F)F)c3c2N)CCC4)cc1OC` [Compound 2399]: the inhibition at 10 µM in series [1] (setting [2]) was 10 to 30%; in series [1] (setting [3]) it was 13.3%.
Take `N#Cc1c(C(F)(F)F)cc(-c2ccccc2)nc1SCC(=O)Nc1nccs1` [Compound 6392]: the inhibition at 10 µM is below 10% in series [1] (setting [2]) and 2.7% in series [1] (setting [3]).
